In article PMC2771899, “Augmentation of Reverse Transcription by Integrase through an Interaction with Host Factor, SIP1/Gemin2 Is Critical for HIV-1 Infection” (PLoS ONE, 2009):

Key:
[1] = target: T1, IN-SIP1 mediated RT activity (Homo sapiens, UniProt O14893); assay: In vitro RT assay, inhibition of IN-SIP1 mediated RT activity by peptide; type: biochemical, HIV-1
T1 construct: the SIP1 gene was amplified from pTRE-SIP1 (kindly provided by Dr. G. Dreyfuss) by PCR and cloned into BamHI and EcoRI sites of pGEX-6P-2; GST (N, cleaved yes); made in house; host or cells: E. coli BL21 (GST-SIP1), E. coli M15 (His-IN)
T1 sequence (O14893 1-280): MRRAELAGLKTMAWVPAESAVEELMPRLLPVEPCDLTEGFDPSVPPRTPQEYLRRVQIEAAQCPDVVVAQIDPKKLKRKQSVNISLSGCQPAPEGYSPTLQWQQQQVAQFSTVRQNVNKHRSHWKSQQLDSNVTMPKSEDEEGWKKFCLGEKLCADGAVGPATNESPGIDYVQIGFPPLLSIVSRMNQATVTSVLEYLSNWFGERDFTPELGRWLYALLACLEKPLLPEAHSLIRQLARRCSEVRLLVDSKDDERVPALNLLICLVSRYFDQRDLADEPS

[2] = test system: HIVNL43-luc/VSV-G pseudotypes; type: cell-based, HIV-1
[3] = test system: viral entry and RT enzymatic activity; assay: Direct effect on viral entry and RT enzymatic activity; design: species or system HIV-1; details: data not shown
[4] = test system: IN-SIP1 interaction (His-IN, rSIP1); assay: Dot-blot inhibition of IN-SIP1 interaction by peptide; type: binding, HIV-1
HIV-1 cDNA synthesis = type: cell-based; details: PMA-stimulated THP-1 cells, 100 µM peptide 16 h before and 6 h during infection; R/U5 and R/gag, 24 h post-infection
rSIP1 = assay: Dot-blot binding of peptide to SIP1; details: 40 or 400 nmol peptide on nitrocellulose, rSIP1 (5 µg), anti-SIP1 antibody
MLV cDNA synthesis = type: cell-based, Moloney murine leukemia virus; details: PMA-stimulated THP-1 cells, 100 µM peptide, MMLV vector pFB-Luc; R/U5 24 h post-infection; compared with DMSO or control peptide

IN60–80: synthetic peptide corresponding to the residues of 60–80 of HIV-1 IN (IWQLDCTHLEGKVILVAVHVA; Integrase; UniProt P04585 1207-1227, looked up, fragment)
IC50, inhibition of IN-SIP1 mediated RT activity ([1]; 35 fmol RT, 3.5 fmol His-IN, 50 fmol rSIP1, 42°C, 30 min, 20 µl, real-time PCR): ~10 pmoles per reaction
Effect on IN-SIP1 mediated RT activity ([1]; 35 fmol RT, 3.5 fmol His-IN, 50 fmol rSIP1, cDNA relative to control): significantly reduced the IN-SIP1 mediated RT activity in a dose-dependent manner
Inhibitory effect on IN-SIP1 mediated RT activity relative to IN231–251 ([1]; IN60–80 versus IN231–251): more than 100 times
Effect on IN-mediated RT stimulatory effect and HIV-1 replication ([1]; summary statement): specifically block IN-mediated RT stimulatory effect and HIV-1 replication
HIV-1 infectivity, % of control [2]: 20–25 % of control
Direct effect on viral entry and RT enzymatic activity [3]: does not directly suppress viral entry and RT enzymatic activity
Peptide concentration that reduces His-WT binding to SIP1 to non-specific background levels ([4]; His-IN (10 µg) on nitrocellulose, 5 µg rSIP1): About 5 µM
Interference with binding of full-length IN (His-WT) to SIP1 ([4]; His-IN (10 µg) on nitrocellulose, 5 µg rSIP1, peptide present): significantly interfered with the binding of the full-length IN (His-WT) to the SIP1 protein
Inhibitory effect on His-WT binding to SIP1 relative to IN231–251 ([4]; IN60–80 versus IN231–251): more than 10 times
Viral cDNA synthesis, % of control (HIV-1 cDNA synthesis): less than 25 % of control
Direct binding of peptide to rSIP1 (rSIP1): efficiently bound to rSIP1
Effect on MLV cDNA synthesis (MLV cDNA synthesis): no significant inhibitory effect
